Laboratory results published in patent US6337417B1, “N-phenyltetrahydrophthalamic acid derivatives, methods of producing same, and herbicides containing same as effective components” (Central Glass Co., Ltd., priority 1994, dated 2002).

Key:
Type in all cases: in vivo
Set-up in all cases: key: 5: completely killed; 4: seriously injured; 3: considerably injured; 2: somewhat injured; 1: slightly injured; 0: not injured (normally grown)
paddy rice = assay: Experiment 7 flooded soil treatment: injury to paddy rice; conditions: evaluated 4 weeks after treatment
Text: (§1) Paddy soil (clay loam) was put into a pot so as to have a surface area of 1/15500 ares. Uniformly mixed seeds of several kinds of weeds, viz., nobie (barnyardgrass, Echinochloa spp.), broad-leaved weeds, hotarui (bulrush, Scirpus juncoides) and tamagayatsuri (small-flowered umbrellaplant, Cyperus difformis), were sown in the surface layer of the soil in each pot, and then paddy rice seedlings at the two- or three-leaved stage were transplanted into each pot to a depth of 2 cm, and water was fed into each pot so as to provide a 3 cm deep water layer on the soil surface. After 3 days, in other words at the initial stage of germination of nobie (barnyardgrass, Echinochloa spp.), a predetermined amount of a selected compound obtained in a manner analogous to Example 14 in the form of diluted aqueous solution was dropped into the water layer in each pot. After that, the pots were kept in a glass chamber to allow the paddy rice and the weeds to grow, and after the lapse of 4 weeks from the treatment with the selected compounds, the herbicidal effects and the degree of injury to the paddy rice were evaluated. The evaluation of the herbicidal effects was similarly conducted as that of Experiment 1.

[1] = test system: nobie (barnyardgrass, Echinochloa spp.); assay: Experiment 7 flooded soil treatment: nobie; conditions: evaluated 4 weeks after treatment
Text: as §1

broad-leaved weeds = assay: Experiment 7 flooded soil treatment: broad-leaved weeds; conditions: evaluated 4 weeks after treatment
Text: as §1

[2] = test system: hotarui (bulrush, Scirpus juncoides); assay: Experiment 7 flooded soil treatment: hotarui; conditions: evaluated 4 weeks after treatment
Text: as §1

[3] = test system: tamagayatsuri (small-flowered umbrellaplant, Cyperus difformis); assay: Experiment 7 flooded soil treatment: tamagayatsuri; conditions: evaluated 4 weeks after treatment
Text: as §1

rice = assay: Experiment 8 foliage treatment: rice; conditions: foliage spray of wettable powder suspension, evaluated 4 weeks after treatment
Protocol: (§2) Upon seedling stage (two- or three-leaved stage) of rice, cockspur (Panicum crus-galli), garden radish, aobiyu (slender amaranth, Amaranthus viridis) and mehishiba (henry crabgrass, Digitaria cliaris) which were grown on a cultivated soil put in pots of 1/15500 ares, a selected compound obtained in a manner analogous to Example 14, in suspended wettable powder, was sprayed to each plant. After that, the pots were kept in a glass chamber to allow each plant to grow, and after the lapse of 4 weeks from the treatment with the selected compounds the herbicidal effects were evaluated. The evaluation of the herbicidal effects was similarly conducted as to that of Experiment 1.

[4] = test system: cockspur (Panicum crus-galli); assay: Experiment 8 foliage treatment: cockspur; conditions: foliage spray of wettable powder suspension, evaluated 4 weeks after treatment
Protocol: as §2

garden radish = assay: Experiment 8 foliage treatment: garden radish; conditions: foliage spray of wettable powder suspension, evaluated 4 weeks after treatment
Protocol: as §2

[5] = test system: aobiyu (slender amaranth, Amaranthus viridis); assay: Experiment 8 foliage treatment: aobiyu; conditions: foliage spray of wettable powder suspension, evaluated 4 weeks after treatment
Protocol: as §2

[6] = test system: mehishiba (henry crabgrass, Digitaria cliaris); assay: Experiment 8 foliage treatment: mehishiba; conditions: foliage spray of wettable powder suspension, evaluated 4 weeks after treatment
Protocol: as §2

SMILES | Injury of Paddy (paddy rice; 6.25 g/10a) | Injury of Paddy (paddy rice; 12.5 g/10a) | Herbicidal Effect nobie ([1]; 6.25 g/10a) | Herbicidal Effect nobie ([1]; 12.5 g/10a) | Herbicidal Effect broad-leaved weed (broad-leaved weeds; 6.25 g/10a) | Herbicidal Effect broad-leaved weed (broad-leaved weeds; 12.5 g/10a) | Herbicidal Effect hotarui ([2]; 6.25 g/10a) | Herbicidal Effect hotarui ([2]; 12.5 g/10a) | Herbicidal Effect tamagayatsuri ([3]; 6.25 g/10a) | Herbicidal Effect tamagayatsuri ([3]; 12.5 g/10a) | Herbicidal Effect rice (rice; 40 g/10a) | Herbicidal Effect rice (rice; 80 g/10a) | Herbicidal Effect cockspur ([4]; 40 g/10a) | Herbicidal Effect cockspur ([4]; 80 g/10a) | Herbicidal Effect garden radish (garden radish; 40 g/10a) | Herbicidal Effect garden radish (garden radish; 80 g/10a) | Herbicidal Effect aobiyu ([5]; 40 g/10a) | Herbicidal Effect aobiyu ([5]; 80 g/10a) | Herbicidal Effect mehishiba ([6]; 40 g/10a) | Herbicidal Effect mehishiba ([6]; 80 g/10a)
C#CC(C)Oc1cc(N(C(=O)C2=C(C(=O)OCCOC)CCCC2)C(=O)c2cccs2)c(F)cc1Cl (stereo not shown) [compound 94] | 0.5 | 0.5 | 5 | 5 | 5 | 5 | 5 | 5 | 5 | 5 | 1 | 1 | 1 | 1 | 5 | 5 | 5 | 5 | 1 | 1
C#CC(C)Oc1cc(N(C(=O)C2=C(C(=O)OCCCC)CCCC2)C(=O)c2cccs2)c(F)cc1Cl (stereo not shown) [compound 93] | 0.5 | 0.5 | 5 | 5 | 5 | 5 | 4 | 4 | 4 | 4 | 1 | 1 | 1 | 1 | 4 | 5 | 5 | 5 | 1 | 1
C#CC(C)Oc1cc(N(C(=O)C2=C(C(=O)OC)CCCC2)C(=O)c2ccc(C)s2)c(F)cc1Cl (stereo not shown) [compound 96] | 0 | 0.5 | 5 | 5 | 5 | 5 | 4 | 4 | 5 | 5 | 1 | 1 | 1 | 1 | 5 | 5 | 5 | 5 | 1 | 1
C#CC(C)Oc1cc(N(C(=O)C2=C(C(=O)OCCC)CCCC2)C(=O)c2cccs2)c(F)cc1Cl (stereo not shown) [compound 92] | 0 | 0 | 5 | 5 | 5 | 5 | 4 | 4 | 4 | 5 | 1 | 1 | 1 | 1 | 4 | 4 | 5 | 5 | 1 | 1
C#CC(C)Oc1cc(N(C(=O)C2=C(C(=O)OC)CCCC2)C(=O)c2sccc2C)c(F)cc1Cl (stereo not shown) [compound 95] | 0 | 0 | 5 | 5 | 5 | 5 | 4 | 4 | 5 | 5 | 1 | 1 | 1 | 1 | 4 | 4 | 5 | 5 | 1 | 1
COC(=O)COc1cc(N(C(=O)C2=C(C(=O)OC)CCCC2)C(=O)c2cccs2)c(F)cc1Cl [compound 99] | 0 | 0 | 5 | 5 | 5 | 5 | 4 | 4 | 4 | 5 | 1 | 1 | 1 | 1 | 4 | 4 | 4 | 5 | 1 | 1
C#CC(C)Oc1cc(N(C(=O)C2=C(C(=O)OCCC)CCCC2)C(=O)c2ccsc2)c(F)cc1Cl (stereo not shown) [compound 101] | 0.5 | 1 | 5 | 5 | 5 | 5 | 4 | 4 | 5 | 5 | 1 | 1 | 1 | 1 | 5 | 5 | 5 | 5 | 1 | 1
COC(=O)C1=C(C(=O)N(C(=O)c2cccs2)c2cc(OC3CCCC3)c(Cl)cc2F)CCCC1 [compound 98] | 0.5 | 0.5 | 5 | 5 | 5 | 5 | 4 | 5 | 5 | 5 | 1 | 1 | 1 | 1 | 4 | 4 | 4 | 5 | 1 | 1
